The values that follow come from ChEMBL document CHEMBL1128938, “Evaluation of furofuran as a P2 ligand for symmetry-based HIV protease inhibitors” (Bioorg Med Chem Lett, 1996).

In data set [1] the test system is MT4. The data set can be described thus: Tested for its anti-HIV activity in MT-4 cells. The data set is classed as functional, cell-based. Conditions: Homo sapiens.
For data set [2], the system named is MT4. Description: Cytotoxicity in MT-4 cells using cytopathicity assay. It counts as functional, Homo sapiens. (Protection from cytopathic effect is a common read-out in antiviral testing.)
For data set [3], the system named is MT4. Description: Tested for its anti-HIV activity in MT-4 cells in the presence of 50% human serum. It counts as functional, cell-based.
Data set [4] concerns the target Human immunodeficiency virus type 1 protease (Human immunodeficiency virus 1) (UniProt Q72874). The data set can be described thus: Compound was tested for its inhibition against HIV protease at a concentration of 4 nM.
For data set [5] the target is unchanged. The data set can be described thus: Tested for its inhibition against HIV protease at a concentration of 0.5 nM.
The nature of data set [6]: AUC value after oral dose at a dose of 10 mg/kg in rats. The data set is classed as ADME, organism-based. Details: dose 10 mg/kg, route oral. Conditions: rat, plasma.
Data set [7] can be described thus: Cmax value after oral dose at a dose of 10 mg/kg in rats. It counts as ADME, organism-based. More on the design: dose 10 mg/kg, route oral. Particulars: rat, in vivo.
Data set [8] is described as follows: Oral bioavailability in rat (dose 10 mg/kg p.o.). The data set is classed as ADME, organism-based. Particulars: in vivo.
Data set [9] in a line: Tmax value after oral dose at a dose of 10 mg/kg in rats. The data set is classed as ADME, organism-based. Particulars: rat, in vivo. More on the design: dose 10 mg/kg, route oral.
Data set [10] in a line: Half-life value after IV dose at a dose of 5 mg/kg in rats. More on the design: dose 5 mg/kg, route intravenous. Particulars: rat, in vivo. It counts as ADME, organism-based.
A short description of data set [11]: AUC value after IV dose at a dose of 5 mg/kg in rats. Particulars: rat, plasma. Details: dose 5 mg/kg, route intravenous. It counts as ADME, organism-based.

Molecules are shown by their SMILES. Where only a bound is given, the exact number is not on record here.

As usually defined, the EC50 is the concentration at which the effect is half-maximal. Usually inhibition stands for the share of the control response that was lost under treatment. A lower inhibition goes with a weak effect. The AUC is concentration integrated over time. A higher AUC goes with more exposure. A word on the Cmax: it is the maximum level reached in the sampled fluid or tissue. The term bioavailability denotes dose-corrected exposure relative to a reference, in per cent. High values mean much systemic uptake, low ones little systemic uptake. One may read the Tmax as the time at which the peak concentration occurs. One may read the half-life as the time needed for the level to fall by half in the phase considered. The low end stands for rapid decline, the high end for slow decline.

With `O=C(N[C@@H](Cc1ccccc1)C[C@H](O)[C@H](Cc1ccccc1)NC(=O)O[C@@H]1COC2OCCC21)O[C@@H]1COC2OCCC21` (stereo partly drawn), the values for the EC50 with MT4 [1] and with MT4 [3] were 3680 nM and 4180 nM, respectively. In the data set on MT4 [2], this compound returned a CCIC50 of over 100 µM. The compound further gave an inhibition in [4] of 50%.

On to `O=C(N[C@@H](Cc1ccccc1)C[C@H](O)[C@H](Cc1ccccc1)NC(=O)OC1COC2OCCC12)Oc1cncs1` (stereo partly drawn), for which the EC50 in the data set with MT4 [1] was found to be 502 nM; in the data set with MT4 [3], 1200 nM. The compound further returned an inhibition in data set [5] of 43%. Also, the CCIC50 in the data set on MT4 [2] is over 100 µM.

As to `CC(C)(C)OC(=O)N[C@@H](Cc1ccccc1)C[C@H](O)[C@H](Cc1ccccc1)NC(=O)O[C@@H]1COC2OCCC21` (stereo partly drawn), the figures for the EC50 with MT4 [1] and in the data set on MT4 [3] were 1040 nM and 4730 nM, respectively. Moreover, in data set [5], the inhibition was 45%. Moreover, in the data set on MT4 [2], the CCIC50 was over 100 µM.

On to `O=C(N[C@@H](Cc1ccccc1)C[C@H](O)[C@H](Cc1ccccc1)NC(=O)O[C@H]1COC2OCCC21)O[C@H]1COC2OCCC21` (stereo partly drawn), for which the EC50 was determined as 34 nM in the data set on MT4 [1] and 115 nM in the data set on MT4 [3]. In [5], this compound yielded an inhibition of 64%. Moreover, the CCIC50 in the data set on MT4 [2] is over 100 µM.

For `CC(C)(C)OC(=O)N[C@@H](Cc1ccccc1)C[C@H](O)[C@H](Cc1ccccc1)NC(=O)O[C@H]1COC2OCCC21` (stereo partly drawn), the EC50 with MT4 [1] stood at 180 nM. Moreover, the inhibition in [5] stood at 63%. In addition, in the data set on MT4 [2], the CCIC50 amounted to 69 µM.

Turning to `CC(C)(C)OC(=O)N[C@@H](Cc1ccccc1)C[C@H](O)[C@H](Cc1ccccc1)NC(=O)OC1COC2OCCC12` (stereo partly drawn), the EC50 with MT4 [1] and in the data set on MT4 [3] was 200 nM each time. The inhibition in [5] was determined as 49%. The CCIC50 in the data set with MT4 [2] was 56 µM.

Take `O=C(N[C@@H](Cc1ccccc1)C[C@H](O)[C@H](Cc1ccccc1)NC(=O)O[C@H]1COC2OCCC21)Oc1cncs1` (stereo partly drawn): the exposure (AUC) in [6] amounted to 1890 ng·h/mL; in data set [11], 2300 ng·h/mL. Moreover, the EC50 was found to be 140 nM with MT4 [1] and 290 nM in the data set with MT4 [3]. The compound further displayed a Cmax in data set [7] of 1120 ng/mL. The same compound had an inhibition in data set [5] of 53%. The same compound showed a CCIC50 with MT4 [2] of over 100 µM. Further, the bioavailability in data set [8] is 41.1%. Also, the Tmax in [9] was 30 min. The compound further gave a half-life in data set [10] of 41.4 min.

Regarding `O=C(N[C@@H](Cc1ccccc1)[C@@H](O)C[C@H](Cc1ccccc1)NC(=O)O[C@@H]1COC2OCCC21)O[C@H]1COC2OCCC21` (stereo partly drawn), the EC50 in the data set with MT4 [1] amounted to 891 nM; in the data set on MT4 [3], 1920 nM. This compound had an inhibition in data set [5] of 39%. In the data set with MT4 [2], this compound gave a CCIC50 of over 100 µM.

`CC(C)c1nc(CN(C)C(=O)N[C@H](C(=O)N[C@@H](Cc2ccccc2)C[C@H](O)[C@H](Cc2ccccc2)NC(=O)OCc2cncs2)C(C)C)cs1` [RITONAVIR]: the EC50 in the data set on MT4 [1] was 70 nM; in the data set with MT4 [3], 810 nM. This compound returned an inhibition in data set [5] of 78%. Moreover, in the data set on MT4 [2], the CCIC50 was found to be 56 µM.

On to `O=C(N[C@@H](Cc1ccccc1)C[C@H](O)[C@H](Cc1ccccc1)NC(=O)O[C@@H]1COC2OCCC21)O[C@H]1COC2OCCC21` (stereo partly drawn), for which the EC50 in the data set on MT4 [1] amounted to 107 nM; in the data set with MT4 [3] it was 197 nM. Besides, the inhibition in data set [5] is 73%. Further, the CCIC50 with MT4 [2] is over 100 µM.

For the compound `O=C(N[C@@H](Cc1ccccc1)C[C@H](O)[C@H](Cc1ccccc1)NC(=O)OC1COC2OCCC12)OC1COC2OCCC12` (stereo partly drawn), the EC50 in the data set on MT4 [1] was determined as 71 nM; with MT4 [3], 77 nM. In data set [5], the inhibition amounted to 53%. Further, the CCIC50 in the data set with MT4 [2] is over 100 µM.

For `O=C(N[C@@H](Cc1ccccc1)[C@@H](O)C[C@H](Cc1ccccc1)NC(=O)OC1COC2OCCC12)Oc1cncs1` (stereo partly drawn), the EC50 in the data set on MT4 [1] was 428 nM; with MT4 [3], 774 nM. Also, in [5], the inhibition is 52%. The compound also registered a CCIC50 in the data set on MT4 [2] of over 100 µM.
